US20240400584A1, “COMPOUNDS AND METHODS FOR MODULATING SPLICING” (REMIX THERAPEUTICS INC., priority 2021, published 2024)

How the values were obtained:
[1] = system: HTT; test: RT-qPCR splicing assay, HTT AJ/CJ mRNA; type: cell-based, human; settings: A673 or K562 cells; for IC50: decrease in canonical junction mRNA; for AC50: increase in alternative junction mRNA
Summary of the method: (§1)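 HTT and MYB canonical (CJ) and alternative-exon (AJ) junction transcripts quantified by one-step RT-qPCR from lysates of A673 or K562 cells treated 24 h with 11-point 3-fold dilutions (top 10 uM, ≤0.25% DMSO). Ct normalized to GAPDH, GUSB or PPIA and DMSO control (2^−ΔΔCt), expressed as % response.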

[2] = system: HTT; test: Gene panel canonical junction qPCR assay, HTT CJ mRNA (Table 7); type: cell-based, human; settings: read-out: HTT CJ mRNA decrease IC50
Summary of the method: (§2)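 A673 or K562 cells treated with compound; canonical exon-junction mRNA measured by RT-qPCR with junction-spanning primers/probe, normalised to GAPDH, GUSB or PPIA and DMSO (ΔΔCt, RQ). Percentage response set from fixed ΔCt assay windows, fitted to a 4-parameter logistic; IC50 is concentration giving 50% CJ decrease.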

[3] = system: Target C; test: Gene panel canonical junction qPCR assay, Target C CJ mRNA (Table 7); type: cell-based, human; settings: Homo sapiens, read-out: Target C CJ mRNA decrease IC50
Summary of the method: as §2

[4] = system: HiBit-tagged HTT in K562 cells; test: HiBiT protein abundance assay, HTT; type: cell-based, human; settings: HiBiT-modified K562 cells, 24 hours, luminescence
Protocol: (§3) Compounds described herein were used to screen for effects on quantitative protein abundance using a HiBit assay system (Promega). Quantitative protein abundance was determined by measuring the protein levels of HiBit-tagged protein targets expressed in cell culture via luminescence using the Nano-Glo HiBiT Lytic Detection System, which uses a split complementation assay format to reconstitute NanoBiT enzyme to generate a luminescent signal. A protein abundance assay was developed such that endogenous protein targets could be modified with the HiBiT peptide tag and their abundance could be assessed after compound treatment. Briefly, K562 cell lines containing a HiBiT-modification were treated with various compounds described herein (e.g., compounds of Formulas (I)). After treatment for 24 hours, the protein abundance of a specific target was determined by measuring luminescence.
(§4) Cells were maintained in IMDM with 10% FBS. Before the assay, cells were diluted with […] growth media (IMDM+[…] media) and were seeded in a 384-well plate at a density of 10000 cells/well (for each cell line listed in Table 8). Each compound was prepared as a 10-point 3-fold serial dilution in DMSO with the top dose at a final concentration of 10 μM in the well. Unmodified K562 cells were added at the previously specified density with DMSO to serve as an assay baseline and positive control (PC) and DMSO only with the respective modified cell lines was added to the negative control (NC) columns. Final DMSO concentration was kept at or below 0.25% o. Treated cell plates were placed in an incubator at 37° C. with […] for 24 hours. After 24 hours, 25 μL of Complete HiBit Lytic reagent was added to each well at room temperature (e.g. one plate requiring 10 mL Lytic Buffer, 100 μL LgBiT Protein, 200 μL Lytic Substrate), shaken for 5 minutes at 600 RPM, then left to sit for 10 minutes for signal to stabilize before reading on a Spark Cyto plate reader (Tecan) with a 500 ms measurement time.
(§5) To determine compound effects on protein abundance of each target in Table 9, the percent response for each respective cell line was calculated at each compound concentration as follows:
(§6) For the normalized response at each concentration, a four-parameter logistical regression was fit to the data and the response was interpolated at the […] to determine a concentration for protein abundance at 50% o (IC50) the untreated control.

[5] = system: HiBit-tagged MYB in K562 cells; test: HiBiT protein abundance assay, MYB; type: cell-based, human; settings: HiBiT-modified K562 cells, 24 hours, luminescence
Protocol: as §3, §4, §5, §6

[6] = system: HiBit-tagged Target C in K562 cells; test: HiBiT protein abundance assay, Target C; type: cell-based, human; settings: HiBiT-modified K562 cells, 24 hours, luminescence
Protocol: as §3, §4, §5, §6

[7] = system: MYB; test: RT-qPCR splicing assay, MYB AJ/CJ mRNA; type: cell-based; settings: Homo sapiens, A673 or K562 cells, 24 hours; for IC50: decrease in canonical junction mRNA; for AC50: increase in alternative junction mRNA
Summary of the method: as §1

[8] = system: SMN2; test: Gene panel canonical junction qPCR assay, SMN2 CJ mRNA (Table 7); type: cell-based; settings: Homo sapiens, read-out: SMN2 CJ mRNA decrease IC50
Summary of the method: as §2

[9] = system: MYB; test: Gene panel canonical junction qPCR assay, MYB CJ mRNA (Table 7); type: cell-based; settings: Homo sapiens, read-out: MYB CJ mRNA decrease IC50
Summary of the method: as §2

Row | Structure (SMILES) | IC50 ([1]; 24 hours) [µM] | AC50 ([1]; 24 hours) [µM] | IC50 [2] [µM] | IC50 [3] [µM] | IC50 [4] [µM] | IC50 [5] [µM] | IC50 [6] [µM] | IC50 ([1]; Homo sapiens, 24 h) [µM] | AC50 ([1]; Homo sapiens, 24 h) [µM] | IC50 ([2]; Homo sapiens) [µM] | IC50 [7] [µM] | AC50 [7] [µM] | IC50 [8] [µM] | IC50 [9] [µM]
1 | c1cnn(-c2ccc3c(c2)OCc2nc(N[C@@H]4C[C@H]5CC[C@@H](C4)N5)ccc2-3)c1 [Compound 119] | > 10 | > 10 | > 10 | 1 to 10 | 0.1 to 1 | 1 to 10 | 1 to 10 |  |  |  |  |  |  | 
2 | CC1(C)CC(Nc2ccc3c(n2)CCOc2cc(-c4cn[nH]c4)ccc2-3)CC(C)(C)N1 [Compound 141] |  |  |  | 1 to 10 | 1 to 10 | < 0.1 | 1 to 10 | > 10 | > 10 | > 10 |  |  |  | 
3 | CN(c1ccc2c(n1)OCc1cc(-c3cnn(C)c3)ccc1-2)[C@@H]1C[C@H]2CC[C@@H](C1)N2 [Compound 150] |  |  |  | 0.1 to 1 |  |  |  | < 0.1 | < 0.1 | < 0.1 | 0.1 to 1 | 0.1 to 1 | > 10 | 0.1 to 1
4 | COc1cc(-c2ccc3c(c2)COc2nc(N4CCN[C@@H](C(C)C)C4)ccc2-3)cnn1 [Compound 303] |  |  |  | 0.1 to 1 |  |  |  | < 0.1 | 0.1 to 1 | < 0.1 | 0.1 to 1 | 0.1 to 1 | < 0.1 | 0.1 to 1
